{"source": "patent US5321046A", "about": "“Hypocholesterolemic unsymmetrical dithiol ketals” (Bristol-Myers Squibb Company, priority 1992, dated 1994)", "key": {"[1]": {"system": "hydroxymethylglutaryl coenzyme A reductase (HMGcoA reductase)", "experiment": "HMGCo-A reductase suppression", "format": "cell-based"}, "HepG2 cells": {"system": "HepG2 cells", "experiment": "HepG2 Cell Culture Model--14C-Acetate Incorporation Assay (cholesterol biosynthesis)", "format": "cell-based", "settings": "Homo sapiens", "protocol": "(a) Isolated Hepatocyte cholesterol biosynthesis assay: HepG2 Cell Culture Model--14C-Acetate Incorporation Assay\nHepG2 cells obtained from the American Type Culture Collection were routinely passed in RPMI-1640 plus 10% fetal bovine serum (FBS) and were subculture into 35 mm diameter wells for experiments. […] The LDS medium supplement was prepared according to Cham et al., J. Lipid Res., 17: 176-181, (1976). After about 16 hours in LDS containing media, test compounds were added in dimethylsulfoxide vehicle (0.5% v/v final conc.) for the period of time indicated in the data (generally 4 hours). Cholesterol synthesis was then directly determined by the incorporation of 2-14C-acetate (1.8-3.0 mCi/mmol) into digitonin-precipitable sterols essentially as described for the rat hepatocyte method above. Greater than 97% of the radiolabelled sterol isolated by this procedure was cholesterol as judged by HPLC. Percent inhibition was calculated from the average of duplicates or triplicates vs. controls receiving vehicle."}, "[2]": {"experiment": "In vivo cholesterol biosynthesis in hamsters (plasma lipids)", "set-up": "species or system hamsters (male F1 B)", "protocol": "(c) In vivo cholesterol biosynthesis in hamsters was assayed using the following protocol: four groups of hamsters (male F1 B, fed 0.5% cholesterol 10% coconut oil), average weight 120-150 gm, were run in parallel (N=10 per group). The animals were initially fed the atherogenic diet for 20 days to determine their pre-drug plasma lipid levels. They were randomized so that each group had the same average plasma total cholesterol. The three of the four groups were started on their respective drug containing diet (day 0), while the remaining group served as controls."}, "[3]": {"settings": "HepG2, read-out: HEPG2 Sterol biosynthesis inhibition @ 10 μM"}, "[4]": {"settings": "HepG2 cells, 14C-acetate incorporation, generally 4 hours, read-out: HepG2 @ 10 μM (inhibition of cholesterol biosynthesis)"}, "[5]": {"settings": "plasma, Day 0 (pre-drug), atherogenic diet, N=10 per group"}}, "note": "Like-named read-outs stand apart in the source and are kept apart here."}
{"smiles": "CC(C)=CCCC(C)=CCCC(C)=CCSC(C)(C)Sc1ccc(O)cc1", "note": "[Example 11, 4-[[1-Methyl-1-[(3,7,11-trimethyl-2,6,10-dodecatrienyl)thio]ethyl]thio]phenol]", "values": [{"measurement": "HMGCo-A reductase suppression @ 10 μM", "setting": "[1]", "result": 37, "unit": "%"}, {"measurement": "inhibition at 10 µM", "setting": "HepG2 cells; [3]", "result": 63, "unit": "%"}, {"measurement": "inhibition at 10 µM", "setting": "HepG2 cells; [4]", "result": 63, "unit": "%"}, {"measurement": "reduction in LDL-cholesterol over control", "setting": "[2]; F1 B hamsters, over control", "result": -25, "unit": "%"}, {"measurement": "reduction in overall cholesterol over control", "setting": "[2]; F1 B hamsters, over control", "result": -18, "unit": "%"}, {"measurement": "LDL Cholesterol, Day 0", "setting": "[2]; [5]", "result": "319 ± 89", "unit": "mg/dL"}, {"measurement": "Total cholesterol, Day 0", "setting": "[2]; [5]", "result": "399 ± 82", "unit": "mg/dL"}, {"measurement": "LDL Cholesterol, Day 21", "setting": "[2]; plasma, Day 21, drug containing diet, control 333 ± 137", "result": "256 ± 85", "unit": "mg/dL"}, {"measurement": "Total cholesterol, Day 21", "setting": "[2]; plasma, Day 21, drug containing diet, control 407 ± 144", "result": "336 ± 90", "unit": "mg/dL"}]}
{"smiles": "CC(=O)Oc1ccc(SC(C)(C)SCC=C(C)CCC=C(C)CCC=C(C)C)c(C)c1", "note": "[Example 15, 3-Methyl-4-[[1-methyl-1-[(3,7,11-trimethyl-2,6,10-dodecatrienyl)thio]ethyl]thio]phenol acetate]", "values": [{"measurement": "inhibition at 10 µM", "setting": "HepG2 cells; [4]", "result": 75, "unit": "%"}]}
{"smiles": "CCOC(=O)C(C)(SCC=C(C)CCC=C(C)CCC=C(C)C)Sc1cc(C)c(O)c(C)c1", "note": "(stereo not drawn) [Example 27, Propanoic Acid, 2-[(4-hydroxy-3,5-dimethylphenyl)thio]-2-[(3,7,11-trimethyl-2,6,10-dodecatrienyl)thio]ethyl ester]", "values": [{"measurement": "HMGCo-A reductase suppression @ 10 μM", "setting": "[1]", "result": 51, "unit": "%"}, {"measurement": "down-regulation of HMGcoA reductase (in words)", "setting": "[1]; in words", "result": "down-regulate the key enzyme in the cholesterol biosynthesis"}, {"measurement": "inhibition at 10 µM", "setting": "HepG2 cells; [3]", "result": 79, "unit": "%"}, {"measurement": "inhibition at 10 µM", "setting": "HepG2 cells; [4]", "result": 79, "unit": "%"}]}
{"smiles": "CC(C)=CCCC(C)=CCCC(C)=CCSC(C)(C)Sc1ccc(F)cc1", "note": "[Example 36, 4-Fluoro-1-[[1-methyl-1-[(3,7,11-trimethyl-2,6,10-dodecatrienyl)thio]ethyl]thio]benzene]", "values": [{"measurement": "inhibition at 10 µM", "setting": "HepG2 cells; [4]", "result": 20, "unit": "%"}]}
